From PMC4095795 (ChemMedChem, 2014)

What was measured:
purified cathepsin K = settings: read-out: IC50 against purified cathepsin K; literature value; cited from earlier work
cathepsin K [1] = settings: cited from earlier work
cathepsin K [2] = biological target: T1, cathepsin K (Mus musculus, UniProt P55097); assay: Live cell cathepsin K activity staining in osteoclasts
T1 sequence (P55097 115-329): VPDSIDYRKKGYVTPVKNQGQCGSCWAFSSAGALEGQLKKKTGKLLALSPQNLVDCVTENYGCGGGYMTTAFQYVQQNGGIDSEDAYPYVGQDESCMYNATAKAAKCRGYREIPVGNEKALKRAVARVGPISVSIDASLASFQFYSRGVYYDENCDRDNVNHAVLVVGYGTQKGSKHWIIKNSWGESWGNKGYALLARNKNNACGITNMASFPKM

[3] = biological target: T2, Recombinant cathepsin K (human) (Homo sapiens, UniProt P43235); settings: read-out: IC50 against purified human cathepsin K; parent inhibitors; identical within error under light vs. dark; cathepsin K 2 nM, Z-Gly-Pro-Arg-AMC 100 μM
T2 sequence (P43235 115-329): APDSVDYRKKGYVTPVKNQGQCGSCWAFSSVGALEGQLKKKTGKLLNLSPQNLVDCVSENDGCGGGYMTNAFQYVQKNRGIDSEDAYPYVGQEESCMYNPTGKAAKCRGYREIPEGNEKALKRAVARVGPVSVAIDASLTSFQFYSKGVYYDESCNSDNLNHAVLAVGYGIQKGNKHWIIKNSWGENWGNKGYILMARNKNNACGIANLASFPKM

[4] = longer than 2; cited from earlier work
[5] = cited from earlier work
[6] = test system: bone marrow macrophages (BMMs); assay: Cell viability, MTT assay, BMM cells; settings: dark or irradiated, 24 h, tested 1 nM–100 μM
[7] = test system: PC3 prostate carcinoma cells; assay: Cell viability, MTT assay, PC3 cells; settings: PC-3 cells, dark or irradiated, 24 h, tested 1 nM–100 μM

maximum inhibition of Z-LR-4MβNA hydrolysis (cathepsin K [2]; 4 under light conditions) | reduction of hydrolysis of Z-LR-4MβNA (cathepsin K [2]; 10–1000 nM, dose dependent, with CA074Me 1 μM) | Structure (SMILES) | IC50 (purified cathepsin K) | inhibition of cathepsin K activity in live cell assays (cathepsin K [1]) | IC50 [3] | half-life in vivo relative to 2 [4] | plasma stability relative to 2 [5] | concentrations with no effects on viability / well tolerated (MTT) [6] | concentrations with no effects on viability / well tolerated (MTT) [7] | effect on Z-LR-4MβNA hydrolysis at 1000 nM (cathepsin K [2]; 1000 nM, with CA074Me 1 μM) | difference in inhibition between light and dark (cathepsin K [2]; Z-LR-4MβNA, with CA074Me 1 μM)
50% | up to 50% | CC(C)CC(NC(=O)OCc1ccccc1)C(=O)NCC#N (stereo not drawn) [Compound 2, Cbz-Leu-NHCH2CN, reference compound] | 35 nM | inhibit cathepsin K activity in live cell assays | 36 nM | – | – | – | – | – | –
– | – | CC(C)CC(NC(=O)OCc1ccccc1)C(=O)NC(C#N)COCc1ccccc1 (stereo not drawn) [Compound 3, Cbz-Leu-Ser(OBn)-CN] | 9 nM | – | 28 nM | roughly 10 times | longer plasma stability | – | – | – | –
– | – | CC#N.CC#N.F[P-](F)(F)(F)(F)F.F[P-](F)(F)(F)(F)F.[Ru+2].c1ccc(-c2ccccn2)nc1.c1ccc(-c2ccccn2)nc1 [reference compound] | – | – | – | – | – | up to 10 μM | up to 10 μM | slight reduction | no difference in inhibition between light and dark experiments
